# According to US8314140B2, “4-hydroxythiobenzamide derivatives of drugs” (Antibe Therapeutics Inc., priority 2006, dated 2012):
# Entries after “also recorded” stand apart in the source; their conditions may differ.
# Tests used:
# [1] = tested on: leukocyte adherence to the vascular endothelium; assay: Leukocyte adherence after NSAID or derivative, intravital microscopy (Example 21); type: in vivo, rat; conditions: for number of adherent leukocytes compared to the parent drug alone: comment on Table 2
# Source text: (§1) Briefly, post-capillary mesenteric venules in anestheitized rats are examined under a light microscope.
# [2] = tested on: gastric damage; assay: Incidence of gastric damage at end of the leukocyte adherence experiment; conditions: for Percent Incidence of Gastric Damage: intragastric 30 μmol/kg (naproxen and Compound XX 60 μmol/kg), end of experiment
# Source text: as §1
# [3] = biological target: COX-1 (Homo sapiens, UniProt P23219); conditions: FIG. 16
# Sequence of COX-1 (Homo sapiens, UniProt P23219) (P23219 24-599): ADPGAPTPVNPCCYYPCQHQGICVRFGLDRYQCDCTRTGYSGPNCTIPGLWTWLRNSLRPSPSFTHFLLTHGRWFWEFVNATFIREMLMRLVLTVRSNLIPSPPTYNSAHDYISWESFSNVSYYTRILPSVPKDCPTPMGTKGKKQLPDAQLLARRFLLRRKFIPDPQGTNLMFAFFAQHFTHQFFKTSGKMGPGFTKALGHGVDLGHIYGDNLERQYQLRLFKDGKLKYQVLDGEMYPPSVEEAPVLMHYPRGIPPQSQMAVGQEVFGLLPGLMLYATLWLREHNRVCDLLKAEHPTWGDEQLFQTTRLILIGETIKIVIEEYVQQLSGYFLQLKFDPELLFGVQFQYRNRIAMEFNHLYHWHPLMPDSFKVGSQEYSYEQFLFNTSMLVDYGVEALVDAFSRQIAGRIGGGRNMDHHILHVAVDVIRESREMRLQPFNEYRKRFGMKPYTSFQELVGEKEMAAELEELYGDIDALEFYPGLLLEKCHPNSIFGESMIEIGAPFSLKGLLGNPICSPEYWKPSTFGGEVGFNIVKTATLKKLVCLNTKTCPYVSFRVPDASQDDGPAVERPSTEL
# Procedure: Aliquots (0.5 mL) of blood from healthy human volunteers were added to glass tubes containing 10 uL of methanol alone, or one of the test drugs prepared such that the final concentration would be 0.1, 0.3, 1 or 3 μM. The tubes were placed in water bath (37° C.) with gentle shaking for 45 min, after which they were centrifuged (1,000×g) for 10 minutes. The concentration of thromboxane B2 in each sample was then determined using a specific ELISA, as in the studies shown in FIG. 11.
# [4] = tested on: carrageenan-induced paw edema; assay: Carrageenan hindpaw edema model; type: in vivo, rat; conditions: oral 30 min prior to carrageenan; diclofenac 1, 3 or 10 mg/kg; Compound XVII equimolar to diclofenac 3 mg/kg; FIG. 14
# Procedure: Male, Wistar rats weighing 175-200 g were given the test compounds orally 30 min prior to subplantar injection of 100 ul of 1% lambda carrageenan.
# [5] = tested on: gastric ulcers; assay: Healing of acetic acid-induced gastric ulcers; type: in vivo, rat; conditions: oral twice-daily for 4 days; 30 μmol/kg (naproxen, Compound XX 60 μmol/kg); FIG. 17
# Procedure: Gastric ulcers were induced via serosal application of acetic acid, as described by Elliott et al., A nitric oxide-releasing nonsteroidal anti-inflammatory drug accelerates gastric ulcer healing in rats. […] After 4 days of such treatment, the rats were euthanized and the stomach was excised and photographed. The area (in mm^2) of the ulcer was determined planimetrically by an individual unaware of the treatments given to the rats.
# [6] = biological target: T1, COX-1 (Rattus norvegicus, UniProt Q63921); assay: Whole blood thromboxane B2 synthesis in treated rats; type: in vivo; conditions: 60 μmol/kg oral; versus vehicle; FIG. 11
# T1 construct: whole blood thromboxane synthesis, which occurs via COX-1; from tissue; host or cells: rat whole blood, ex vivo after oral dosing
# T1 sequence (Q63921 27-602): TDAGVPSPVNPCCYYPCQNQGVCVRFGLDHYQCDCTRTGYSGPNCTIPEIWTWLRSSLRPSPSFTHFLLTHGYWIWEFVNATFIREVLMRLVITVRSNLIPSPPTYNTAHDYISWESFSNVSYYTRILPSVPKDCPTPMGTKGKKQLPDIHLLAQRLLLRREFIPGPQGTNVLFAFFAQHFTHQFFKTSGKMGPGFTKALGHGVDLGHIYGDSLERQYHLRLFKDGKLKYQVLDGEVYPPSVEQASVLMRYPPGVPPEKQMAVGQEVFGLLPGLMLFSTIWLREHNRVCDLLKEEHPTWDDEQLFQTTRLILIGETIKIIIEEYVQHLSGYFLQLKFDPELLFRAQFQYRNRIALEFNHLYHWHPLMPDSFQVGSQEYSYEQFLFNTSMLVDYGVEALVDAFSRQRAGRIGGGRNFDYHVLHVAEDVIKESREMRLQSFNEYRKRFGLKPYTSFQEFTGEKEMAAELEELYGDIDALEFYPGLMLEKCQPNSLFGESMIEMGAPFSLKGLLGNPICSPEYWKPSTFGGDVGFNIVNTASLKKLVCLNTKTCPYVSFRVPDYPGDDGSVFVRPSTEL
# Procedure: Inhibition of COX-1 was also measured using the same rats. […] The samples were then centrifuged for 3 min at 9,000 g and the supernatant was frozen at −80° C. for subsequent measurement of thromboxane B2 concentrations using a specific ELISA.
# Inhibition of COX-1 was also measured using the same rats, using the same method as described for FIG. 11.
# [7] = tested on: gastric damage; assay: Gastric damage score 3 h after oral dosing; type: in vivo, rat; conditions: oral 60 μmol/kg, 3 hours; FIG. 10
# Source text: There were 5 rats in each group.
# Each group consisted of 5 rats.
# [8] = tested on: visceral pain perception; assay: Rat model of visceral pain perception (colorectal distension, AWR score); type: in vivo
# Procedure: A rat model of visceral pain perception, a pre-clinical model of irritable bowel syndrome, was used in the following example. Rats (male, Wistar, 200-250 g, obtained from Charles River, Monza, Italy), were housed in plastic cages and maintained under controlled conditions with 12-hours light/dark cycle with lights on at 7.00 AM. Tap water and standard laboratory chow were freely available. Before experiments, rats were individually trained by spending 2-3 hours per day in a plexiglass cage for 2-3 days. It allowed them to adjust to a movement-restriction environment. Food was withheld for 12 hours before colorectal distension (CRD) recording were performed. Experiments were performed in awake rats and were conducted in a blind manner in that the observer was not aware of the identity of drug administered to each animal.
# In the testing day, rats were sedated with ether inhalation and a 2 cm long latex balloon was inserted intrarectally 2 cm from the anal verge and fixed at the base of the tail. The balloon was connected via a double-barreled cannula to a pressure transducer to continuously monitoring the rectal pressure by a computer (PowerLab PC, A.D. Instruments, Milford, Mass., USA) and to a syringe for inflation/deflation of the balloon. The rats were then housed in a small cage (20×8×8 cm) on an elevated Plexiglas™ platform and allowed to wake up and adapt for 1 hour. After recovery from sedation, animals underwent the CRD procedure and behavioral responses were tested. The night before the experiments, the balloons were inflated and left overnight so the latex stretched and the balloons became compliant.
# CRD of 20 seconds, performed every 5 minutes, was applied in increment of 0.4 ml starting from 0.4 ml up to 1.6 ml water. To achieve an accurate measurement of the colonic parameters and perception, the distensions were repeated twice for each intensity and data for each animal were averaged for analysis. Each animal underwent a double set of CRD. Twenty minutes after the first sequence of CRD (0.4 mL-1.6 ml water), drugs were administered intraperitoneally (i.p.) and a second set of CRD was performed. Behavioral responses during the first and the second set of CRD were assessed and compared.
# Behavioral response to CRD was assessed by measuring the abdominal withdrawal reflex (AWR) using a semiquantitative score (1).
# A rat model of visceral pain perception as described above was used to compare pain perception scores for 5-amino-2-(4-thiocarbamoyl-phenoxycarbonyloxy)-benzoic acid (Compound XXVII) with or without glibenclamide, an inhibitor of ATP-sensitive K^+ (KATP) channels.
# Experiments were carried out as described in Example 13, except that groups of 5 rats each were treated with vehicle, trimebutine maleate (10 mg/kg), or with equimolar doses of trimebutine thiocarbamoylbenzoate (Compound III) or thiocarbamolybenzoate alone.
# [9] = H2S generation in buffer and liver homogenate (Example 15); type: in vitro ADME, rat; conditions: 1 mM compound, FIG. 6
# Procedure: (Compound XXVII) was tested for H2S generation under three different conditions. Concentrations of H2S that were generated within 1 hour from 1 mM concentrations of L-cysteine, 4-HBT (4-hydroxythiobenzamide) and 5-amino-2-(4-thiocarbamoyl-phenoxycarbonyloxy)-benzoic acid were measured. H2S release was tested under three conditions: (i) when the compound was in buffer, (ii) when the compound was in a liver homogenate, and (iii) when the compound was in the liver homogenate together with an inhibitor of cystathionine γ-lyase (PAG=DL-propargylglycine; 2 mM). Results are shown in FIG. 6. *p<0.05 compared to the release from the vehicle group. ^ψp>0.05 versus the corresponding ‘homogenate’ group. The enzymatic capacity for H2S production was determined using the same reactor as described previously (Khan et al. (1980) Microchem J 25: 388-395, incorporated herein by reference). Two ml of an assay reaction mixture was introduced in the reactor. The mixture contained 1 mM L-cysteine (or compound), 2 mM pyridoxal 5′-phosphate, 100 mM potassium phosphate buffer (pH=7.4). A constant stream of nitrogen was passed through the mixture via gas-inlet capillary. Reactions were initiated by transferring the tubes from ice bath to a 37° C. water bath. The stream of nitrogen carried the sulfide acid in the second reactor containing 4 ml of sulfide anti-oxidant buffer (SAOB) solution, consisting of 2M KOH, 1M salicylic acid and 0.22M ascorbic acid at pH 12.8[5]. After incubating at 37° C. for 90 minutes, 1 ml of 10% trichloroacetic acid solution was added to mixture to stop the reaction. The remainder H2S in the mixture was carried out via nitrogen stream by other 60 minutes of incubation at 37° C. The concentration of sulfide in SAOB solution was measured with a sulfide sensitive electrode (Model 9616 S^2−/Ag^+ electrode, Orion Research, Beverly, Mass., USA). For studies in which the test compounds were incubated in liver homogenate, 100-150 mg of isolated rat livers were homogenized in 1 ml of ice-cold T-PER protein extractor. The homogenates were added to the reaction mixture at a concentration of 10% (wt/vol). DL-propargylglycine 2 mM was incubated with liver homogenates for 5 min at 37° C. prior the enzyme reaction. Khan, S. U. Morris, G. F. and Hidiroglou, M. (1980) Rapid estimation of sulfide in rumen and blood with a sulfide-specific ion electrode. Microchem J. 25:388-395, incorporated herein by reference.
compound,measurement,setting,value
"CC(=O)Oc1ccccc1C(=O)Oc1ccc(C(N)=S)cc1 [Compound XVI, 2-Acetoxy-benzoic acid 4-thiocarbamoyl-pheny ester]",melting point,,154 to 156 °C
same,number of adherent leukocytes compared to the parent drug alone,[1],significantly reduced the number of adherent leukocytes
same,percent incidence of gastric damage compared to the parent drug alone,[2]; comment on Table 2,significantly reduced the percent incidence of gastric damage
same,Percent Incidence of Gastric Damage,[2],0%
"COc1ccc2c(c1)c(CC(=O)Oc1ccc(C(N)=S)cc1)c(C)n2C(=O)c1ccc(Cl)cc1 [Compound XIX, [1-(4-Chloro-benzoyl)-5-methoxy-2-methyl-1-H-indol-3-yl]-acetic acid 4-thiocarbamoyl-phenyl ester]",melting point,,224 to 226 °C
same,thromboxane synthesis by human blood (COX-1 activity),"[3]; 0.1, 0.3, 1 or 3 μM, 45 min, 37° C.",concentration-dependent inhibition of COX-1 activity
same,thromboxane synthesis by human blood (COX-1 activity) versus indomethacin,[3]; concentrations of 1 and 3 μM,significantly greater (*p<0.05) inhibition of COX-1 activity than that produced by indomethacin
same,Number of Adherent Leukocytes,"[1]; intragastric 30 μmol/kg (naproxen and Compound XX 60 μmol/kg), mean±SEM",3.0 ± 0.4 per 100 μm vessel length
same,Percent Incidence of Gastric Damage,[2],0%
"Cc1ccc(Nc2c(F)cccc2Cl)c(CC(=O)Oc2ccc(C(N)=S)cc2)c1 [Compound XVIII, 4-thiocarbamoylphenyl 2-(2-(2-chloro-6-fluorophenylamino)-5-methylphenyl)acetate]",melting point,,120 to 122 °C
same,number of adherent leukocytes compared to the parent drug alone,[1],significantly reduced the number of adherent leukocytes
same,percent incidence of gastric damage compared to the parent drug alone,[2]; comment on Table 2,no incidences of gastric damage
same,Percent Incidence of Gastric Damage,[2],0%
"O=C(O)Cc1ccccc1Nc1c(Cl)cccc1Cl [diclofenac, reference compound]",paw edema (paw volume increase),[4],dose-dependently reduced paw edema
"COc1ccc2cc(C(C)C(=O)Oc3ccc(C(N)=S)cc3)ccc2c1 (centres unmarked) [Compound XX, 2-(6-Methoxy-naphthalen-2-yl)-propionic acid 4-thiocarbamyl-phenyl ester]",number of adherent leukocytes compared to the parent drug alone,[1],significantly reduced the number of adherent leukocytes
same,gastric ulcer healing (ulcer surface area),[5],significantly greater healing
same,percent incidence of gastric damage compared to the parent drug alone,"[2]; rat, in vivo",significantly reduced the percent incidence of gastric damage
same,thromboxane B2 synthesis in blood (COX-1 activity),[6],significantly (*p<0.05) inhibited COX-1 activity
same,gastric damage score,[7],significantly less damage than naproxen itself; also recorded: not detectable
"CCC(COC(=O)c1cc(OC)c(OC)c(OC)c1)(c1ccccc1)N(C)C.NC(=S)c1ccc(C(=O)O)cc1 (centres unmarked) [trimebutine thiocarbamoylbenzoate, 3,4,5-trimethoxybenzoic acid 2-(dimethylamino)-2-phenylbutyl ester 4-thiocarbamoyl benzoate]",perception score (AWR Score),"[8]; doses equimolar to trimebutine maleate 10 mg/kg, FIG. 7",more effective than either trimebutine maleate or thiocarbamoylbenzoate in reducing visceral pain
"COc1ccc(Cl)cc1C(=O)NCCc1ccc(S(=O)(=O)NC(=O)NC2CCCCC2)cc1 [glibenclamide, reference compound]",pain perception score after glibenclamide pretreatment,"[8]; 0.8 mL colorectal distention, glibenclamide 10 mg/kg i.p. 30 min before, FIG. 3",did not affect the pain perception
"N[C@@H](CS)C(=O)O [L-cysteine, reference compound]",H2S generation in buffer,"[9]; buffer pH 7.4, 37° C.",did not release significant H2S
same,H2S generation in liver homogenate with PAG,[9]; liver homogenate plus DL-propargylglycine 2 mM,markedly inhibited by PAG
